ChEMBL document CHEMBL3390848, “Affinity selection and sequence-activity relationships of HIV-1 membrane fusion inhibitors directed at the drug-resistant variants” (Medchemcomm, 2010)
Residues, ends and D or L forms follow the SMILES beside them.

What was measured:
[1] = tested on: Human immunodeficiency virus 1; test: Antiviral activity against HIV1 NL4-3 harboring gp41 D36G mutant infected in human HeLa cells expressing CD4-LTR-beta-gal assessed as inhibition of viral replication after 48 hrs by MAGI assay; format: functional, organism-based
[2] = tested on: Human immunodeficiency virus 1; test: Binding affinity to HIV1 His-tagged N-terminal heptad repeat of envelope glycoprotein gp41 assessed as recovery of N54-drug complex after 2 hrs by LC-MS analysis; set-up: concentration or dose not given beside the values
[3] = tested on: Human immunodeficiency virus 1; test: Thermal stability of HIV1 envelope glycoprotein gp41 His-tagged N-terminal heptad repeat N54-drug complex assessed as thermal unfolding transition state by measuring molar ellipticity at 4 to 90 degC by circular dichroic spectra analysis
[4] = tested on: Envelope glycoprotein gp160 (Human immunodeficiency virus 1), Q72502 [V38A]; test: Binding affinity to HIV1 His-tagged N-terminal heptad repeat of envelope glycoprotein gp41 assessed as recovery of N54 V38A mutant-drug complex after 2 hrs by LC-MS analysis; set-up: concentration or dose not given beside the values
[5] = tested on: Human immunodeficiency virus 1; test: Binding affinity to HIV1 His-tagged N-terminal heptad repeat of envelope glycoprotein gp41 assessed as recovery of N54 N43D mutant-drug complex after 2 hrs by LC-MS analysis; set-up: concentration or dose not given beside the values
[6] = tested on: Envelope glycoprotein gp160 (Human immunodeficiency virus 1), Q72502 [V38A]; test: Thermal stability of HIV1 envelope glycoprotein gp41 His-tagged N-terminal heptad repeat N54 V38A mutant-drug complex assessed as thermal unfolding transition state by measuring molar ellipticity at 4 to 90 degC by circular dichroic spectra analysis
[7] = tested on: Human immunodeficiency virus 1; test: Thermal stability of HIV1 envelope glycoprotein gp41 His-tagged N-terminal heptad repeat N54 N43D mutant-drug complex assessed as thermal unfolding transition state by measuring molar ellipticity at 4 to 90 degC by circular dichroic spectra analysis
[8] = tested on: Human immunodeficiency virus 1; test: Binding affinity to HIV1 His-tagged N-terminal heptad repeat of envelope glycoprotein gp41 assessed as recovery of N36-drug complex at 10 uM after 2 hrs by LC-MS analysis
[9] = tested on: Human immunodeficiency virus 1; test: Binding affinity to HIV1 His-tagged N-terminal heptad repeat of envelope glycoprotein gp41 assessed as recovery of N36-drug complex at 6 uM after 2 hrs by LC-MS analysis
[10] = tested on: Human immunodeficiency virus 1; test: Binding affinity to HIV1 His-tagged N-terminal heptad repeat of envelope glycoprotein gp41 assessed as recovery of N36-drug complex at 1 uM after 2 hrs by LC-MS analysis
[11] = tested on: Human immunodeficiency virus 1; test: Binding affinity to HIV1 His-tagged N-terminal heptad repeat of envelope glycoprotein gp41 assessed as recovery of N36-drug complex at 0.6 uM after 2 hrs by LC-MS analysis
[12] = tested on: Human immunodeficiency virus 1; test: Thermal stability of HIV1 envelope glycoprotein gp41 His-tagged N-terminal heptad repeat N36-drug complex assessed as thermal unfolding transition state by measuring molar ellipticity at 4 to 90 degC by circular dichroic spectra analysis

Row | SMILES | EC50 [1] | Activity [2] | Tm [3] | Activity [4] | Activity [5] | Tm [6] | Tm [7] | Activity [8] | Activity [9] | Activity [10] | Activity [11] | Tm [12]
1 | CC[C@H](C)[C@H](NC(=O)[C@H](CC(C)C)NC(=O)[C@H](CCC(=O)O)NC(=O)[C@H](CCC(=O)O)NC(=O)[C@@H](NC(=O)[C@H](CC(C)C)NC(=O)[C@H](CO)NC(=O)[C@@H](NC(=O)[C@H](Cc1ccc(O)cc1)NC(C)=O)[C@@H](C)O)[C@@H](C)CC)C(=O)N[C@@H](CCCCN)C(=O)N[C@@H](CCCCN)C(=O)N[C@@H](Cc1c[nH]c2ccccc12)C(=O)N[C@@H](CCC(=O)O)C(=O)N[C@@H](CCC(=O)O)C(=O)N[C@@H](CCC(N)=O)C(=O)N[C@@H](CCC(N)=O)C(=O)N[C@@H](CCCCN)C(=O)N[C@@H](CCCCN)C(=O)N[C@@H](CC(N)=O)C(=O)N[C@@H](CCC(=O)O)C(=O)N[C@@H](CCC(=O)O)C(=O)N[C@@H](CCC(=O)O)C(=O)N[C@@H](CC(C)C)C(=O)N[C@@H](CCCCN)C(=O)N[C@@H](CCCCN)C(=O)N[C@@H](CC(C)C)C(=O)N[C@@H](CCC(=O)O)C(=O)N[C@@H](CCC(=O)O)C(=O)N[C@@H](Cc1c[nH]c2ccccc12)C(=O)N[C@@H](C)C(=O)N[C@@H](CCCCN)C(=O)N[C@@H](CCCCN)C(=O)N[C@@H](Cc1c[nH]c2ccccc12)C(=O)N[C@@H](CC(N)=O)C(=O)N[C@@H](Cc1c[nH]c2ccccc12)C(=O)N[C@@H](Cc1ccccc1)C(N)=O (Ac-YTSLIEELIKKWEEQQKKNEEELKKLEEWAKKWNWF-NH2) | 20 nM | 5.2% | 62 °C | 7.7% | 7.6% | 53.2 °C | 61.4 °C | – | – | – | – | –
2 | CC[C@H](C)[C@H](NC(=O)[C@H](CC(C)C)NC(=O)[C@H](CCC(=O)O)NC(=O)[C@H](CCC(=O)O)NC(=O)[C@@H](NC(=O)[C@H](CC(C)C)NC(=O)[C@H](CO)NC(=O)[C@@H](NC(=O)[C@H](Cc1ccc(O)cc1)NC(C)=O)[C@@H](C)O)[C@@H](C)CC)C(=O)N[C@@H](CCCCN)C(=O)N[C@@H](CCCCN)C(=O)N[C@@H](CC(C)C)C(=O)N[C@@H](CCC(=O)O)C(=O)N[C@@H](CCC(=O)O)C(=O)N[C@@H](CCC(N)=O)C(=O)N[C@@H](CCC(N)=O)C(=O)N[C@@H](CCCCN)C(=O)N[C@@H](CCCCN)C(=O)N[C@@H](CC(N)=O)C(=O)N[C@@H](CCC(=O)O)C(=O)N[C@@H](CCC(=O)O)C(=O)N[C@@H](CCC(=O)O)C(=O)N[C@@H](CC(C)C)C(=O)N[C@@H](CCCCN)C(=O)N[C@@H](CCCCN)C(=O)N[C@@H](CC(C)C)C(=O)N[C@@H](CCC(=O)O)C(=O)N[C@@H](CCC(=O)O)C(=O)N[C@@H](Cc1c[nH]c2ccccc12)C(=O)N[C@@H](C)C(=O)N[C@@H](CCCCN)C(=O)N[C@@H](CCCCN)C(=O)N[C@@H](Cc1c[nH]c2ccccc12)C(=O)N[C@@H](CC(N)=O)C(=O)N[C@@H](Cc1c[nH]c2ccccc12)C(=O)N[C@@H](Cc1ccccc1)C(N)=O (Ac-YTSLIEELIKKLEEQQKKNEEELKKLEEWAKKWNWF-NH2) | 0.4 nM | 10.4% | 77.6 °C | 10.1% | 10.8% | 57.5 °C | 74 °C | – | – | – | – | –
3 | CC[C@H](C)[C@H](NC(=O)[C@H](CC(C)C)NC(=O)[C@H](CCC(=O)O)NC(=O)[C@H](CCC(=O)O)NC(=O)[C@@H](NC(=O)[C@H](CC(C)C)NC(=O)[C@H](CO)NC(=O)[C@@H](NC(=O)[C@H](Cc1ccc(O)cc1)NC(C)=O)[C@@H](C)O)[C@@H](C)CC)C(=O)N[C@@H](CCCCN)C(=O)N[C@@H](CCCCN)C(=O)N[C@H](C(=O)N[C@@H](CCC(=O)O)C(=O)N[C@@H](CCC(=O)O)C(=O)N[C@@H](CCC(N)=O)C(=O)N[C@@H](CCC(N)=O)C(=O)N[C@@H](CCCCN)C(=O)N[C@@H](CCCCN)C(=O)N[C@@H](CC(N)=O)C(=O)N[C@@H](CCC(=O)O)C(=O)N[C@@H](CCC(=O)O)C(=O)N[C@@H](CCC(=O)O)C(=O)N[C@@H](CC(C)C)C(=O)N[C@@H](CCCCN)C(=O)N[C@@H](CCCCN)C(=O)N[C@@H](CC(C)C)C(=O)N[C@@H](CCC(=O)O)C(=O)N[C@@H](CCC(=O)O)C(=O)N[C@@H](Cc1c[nH]c2ccccc12)C(=O)N[C@@H](C)C(=O)N[C@@H](CCCCN)C(=O)N[C@@H](CCCCN)C(=O)N[C@@H](Cc1c[nH]c2ccccc12)C(=O)N[C@@H](CC(N)=O)C(=O)N[C@@H](Cc1c[nH]c2ccccc12)C(=O)N[C@@H](Cc1ccccc1)C(N)=O)[C@@H](C)O (Ac-YTSLIEELIKKTEEQQKKNEEELKKLEEWAKKWNWF-NH2) | 0.4 nM | 10% | 75.9 °C | 8.1% | 6.1% | 57.8 °C | 62.4 °C | – | – | – | – | –
4 | CC[C@H](C)[C@H](NC(=O)[C@H](CC(C)C)NC(=O)[C@H](CCC(=O)O)NC(=O)[C@H](CCC(=O)O)NC(=O)[C@@H](NC(=O)[C@H](CC(C)C)NC(=O)[C@H](CO)NC(=O)[C@@H](NC(=O)[C@H](Cc1ccc(O)cc1)NC(C)=O)[C@@H](C)O)[C@@H](C)CC)C(=O)N[C@@H](CCCCN)C(=O)N[C@@H](CCCCN)C(=O)N[C@@H](CO)C(=O)N[C@@H](CCC(=O)O)C(=O)N[C@@H](CCC(=O)O)C(=O)N[C@@H](CCC(N)=O)C(=O)N[C@@H](CCC(N)=O)C(=O)N[C@@H](CCCCN)C(=O)N[C@@H](CCCCN)C(=O)N[C@@H](CC(N)=O)C(=O)N[C@@H](CCC(=O)O)C(=O)N[C@@H](CCC(=O)O)C(=O)N[C@@H](CCC(=O)O)C(=O)N[C@@H](CC(C)C)C(=O)N[C@@H](CCCCN)C(=O)N[C@@H](CCCCN)C(=O)N[C@@H](CC(C)C)C(=O)N[C@@H](CCC(=O)O)C(=O)N[C@@H](CCC(=O)O)C(=O)N[C@@H](Cc1c[nH]c2ccccc12)C(=O)N[C@@H](C)C(=O)N[C@@H](CCCCN)C(=O)N[C@@H](CCCCN)C(=O)N[C@@H](Cc1c[nH]c2ccccc12)C(=O)N[C@@H](CC(N)=O)C(=O)N[C@@H](Cc1c[nH]c2ccccc12)C(=O)N[C@@H](Cc1ccccc1)C(N)=O (Ac-YTSLIEELIKKSEEQQKKNEEELKKLEEWAKKWNWF-NH2) | 1.1 nM | 8.2% | 78.8 °C | 9.3% | 7.4% | 60 °C | 65.3 °C | – | – | – | – | –
5 | CC[C@H](C)[C@H](NC(=O)[C@H](CC(C)C)NC(=O)[C@H](CO)NC(=O)[C@@H](NC(=O)[C@H](Cc1ccc(O)cc1)NC(C)=O)[C@@H](C)O)C(=O)N[C@@H](CCC(=O)O)C(=O)N[C@@H](CCC(=O)O)C(=O)N[C@@H](CC(C)C)C(=O)N[C@H](C(=O)N[C@@H](CCCCN)C(=O)N[C@@H](CCCCN)C(=O)N1CCC[C@H]1C(=O)N[C@@H](CCC(=O)O)C(=O)N[C@@H](CCC(=O)O)C(=O)N[C@@H](CCC(N)=O)C(=O)N[C@@H](CCC(N)=O)C(=O)N[C@@H](CCCCN)C(=O)N[C@@H](CCCCN)C(=O)N[C@@H](CC(N)=O)C(=O)N[C@@H](CCC(=O)O)C(=O)N[C@@H](CCC(=O)O)C(=O)N[C@@H](CCC(=O)O)C(=O)N[C@@H](CC(C)C)C(=O)N[C@@H](CCCCN)C(=O)N[C@@H](CCCCN)C(=O)N[C@@H](CC(C)C)C(=O)N[C@@H](CCC(=O)O)C(=O)N[C@@H](CCC(=O)O)C(=O)N[C@@H](Cc1c[nH]c2ccccc12)C(=O)N[C@@H](C)C(=O)N[C@@H](CCCCN)C(=O)N[C@@H](CCCCN)C(=O)N[C@@H](Cc1c[nH]c2ccccc12)C(=O)N[C@@H](CC(N)=O)C(=O)N[C@@H](Cc1c[nH]c2ccccc12)C(=O)N[C@@H](Cc1ccccc1)C(N)=O)[C@@H](C)CC (Ac-YTSLIEELIKKPEEQQKKNEEELKKLEEWAKKWNWF-NH2) | 44 nM | 0.2% | 55.5 °C | 0% | 0.3% | 49.7 °C | 55 °C | – | – | – | – | –
6 | CC[C@H](C)[C@H](NC(=O)[C@H](CCCCN)NC(=O)[C@H](CCCCN)NC(=O)[C@H](CC(=O)O)NC(=O)[C@H](Cc1c[nH]c2ccccc12)NC(=O)[C@H](CCC(=O)O)NC(=O)[C@H](CCC(=O)O)NC(=O)[C@H](Cc1c[nH]c2ccccc12)NC(C)=O)C(=O)N[C@@H](CCC(=O)O)C(=O)N[C@@H](CCC(=O)O)C(=O)N[C@@H](Cc1ccc(O)cc1)C(=O)N[C@H](C(=O)N[C@@H](CCCCN)C(=O)N[C@@H](CCCCN)C(=O)N[C@H](C(=O)N[C@@H](CCC(=O)O)C(=O)N[C@@H](CCC(=O)O)C(=O)N[C@@H](CC(C)C)C(=O)N[C@H](C(=O)N[C@@H](CCCCN)C(=O)N[C@@H](CCCCN)C(=O)N[C@H](C(=O)N[C@@H](CCC(=O)O)C(=O)N[C@@H](CCC(=O)O)C(=O)N[C@@H](CCC(N)=O)C(=O)N[C@@H](CCC(N)=O)C(=O)N[C@@H](CCCCN)C(=O)N[C@@H](CCCCN)C(=O)N[C@@H](CC(N)=O)C(=O)N[C@@H](CCC(=O)O)C(=O)N[C@@H](CCC(=O)O)C(=O)N[C@@H](CCC(=O)O)C(=O)N[C@@H](CC(C)C)C(=O)N[C@@H](CCCCN)C(=O)N[C@@H](CCCCN)C(N)=O)C(C)C)[C@@H](C)CC)[C@@H](C)CC)[C@@H](C)O (Ac-WEEWDKKIEEYTKKIEELIKKVEEQQKKNEEELKK-NH2) | 1.9 nM | – | – | – | – | – | – | 2.8% | 6% | 12.1% | 7% | 79.9 °C
